Data on 5 molecules can be found in paper PMC7654512 (Bioorganic & medicinal chemistry letters, 2019).

The nature of data set [1]: Hydrolytic stability of L-Dopa phosphoramidate prodrugs. The data set is classed as physicochemical. Conditions: for hydrolytic stability relative to 1b (in words): 37 °C, 31P NMR, pH not stated at the place.
The conditions of data set [2]: L-Dopa alone, systemic circulation; cited from earlier work.

Consider `O=C([O-])CCOP(=O)([O-])N[C@@H](Cc1ccc(O)c(O)c1)C(=O)[O-].[K+].[K+].[K+]` [1c], for which the “hydrolytic stability relative to 1b (in words)” value in data set [1] is “unstable compared to 1b”.
With `N[C@@H](Cc1ccc(O)c(O)c1)C(=O)O` [L-Dopa, Levodopa], the circulating half-life result in data set [2] is given as “approximately 1 h”.
Consider `CC(=O)N[C@H](C(=O)[O-])[C@@H](C)OP(=O)([O-])N[C@@H](Cc1ccc(O)c(O)c1)C(=O)[O-].[K+].[K+].[K+]` [1a], for which the “hydrolytic stability relative to 1b (in words)” value in data set [1] is “considerably less stable than the serine analog 1b”.
For the molecule `CC(=O)NCCOP(=O)([O-])N[C@@H](Cc1ccc(O)c(O)c1)C(=O)[O-].[K+].[K+]` [1e], the “hydrolytic stability (in words)” value in data set [1] (pH 7.4, 37 °C, 31P NMR over 16 h) is “stable”.
`CC(=O)N[C@@H](COP(=O)([O-])N[C@@H](Cc1ccc(O)c(O)c1)C(=O)[O-])C(=O)[O-].[K+].[K+].[K+]` [1b]: the half-life in data set [1] (buffer, pH 7.4, half-life (t1/2) of hydrolysis, pH 7.4, 37 °C, 31P NMR over 16 h, internal standard TPPO, first-order kinetics) is around 10 h.
